Tests used:
Format in all cases: cell-based
[1] = tested on: KMS-21 BM; experiment: CellTiter-Glo proliferation assay, single agent and with venetoclax (Example 19); conditions: 5 days; for IC50: 120 h; for Amax: in %
Experimental: (§1) The CD48 MCL-1 antibody drug conjugates were tested against four endogenous cancer cell lines. KMS-21 BM (JCRB No. JCRB1185 cultured in RPMI-1640+10% FBS), KMS-20 (JCRB No. JCRB1196 cultured in RPMI-1640+10% FBS), KMS-27 (JCRB No. JCRB1188 cultured in RPMI-1640+10% FBS), and NCI-H929 (ATCC No. CRL-9068 cultured in RPMI-1640+10% FBS+0.05 mM 2-mercaptoethanol).
(§2) The ability of the CD48 MCL-1 antibody drug conjugates to inhibit cell proliferation and survival was assessed using the Promega CellTiter-Glo® proliferation assay. Cell lines were cultured in media that is optimal for their growth at 5% CO2, 37° C. in a tissue culture incubator. Prior to seeding for the proliferation assay, the cells were split at least 2 days before the assay to ensure optimal growth density. On the day of seeding, suspension cells were harvested. Cell viability and cell density were determined using a cell counter (Vi-Cell XR Cell Viability Analyzer, Beckman Coulter). […] Cells were seeded at a density of 1,000 cells per well in 45 μL of standard growth media. Plates were incubated at 5% CO2, 37° C. overnight in a tissue culture incubator. The next day, free MCL-1 payload (P1), targeting MCL-1 ADCs and non-targeting isotype ADCs were prepared at 10× in standard growth media. The prepared drug treatments were then added to the cells resulting in final concentrations of 0.0005-300 nM and a final volume of 50 μL per well. Each drug concentration was tested in quadruplets. Two conditions were evaluated for each compound. The compounds were evaluated as single agents and in combination with venetoclax. The venetoclax was dosed at either 5 nM or 50 nM final concentration. Plates were incubated at 5% CO2, 37° C. for 5 days in a tissue culture incubator, after which cell viability was assessed through the addition of 25 μL of CellTiter Glo® (Promega, cat #G7573), a reagent which lyses cells and measures total adenosine triphosphate (ATP) content. Plates were incubated at room temperature for 10 minutes to stabilize luminescent signals prior to reading using a luminescence reader (EnVision Multilabel Plate Reader, PerkinElmer). To evaluate the effect of the drug treatments, luminescent counts from wells containing untreated cells (100% viability) were used to normalize treated samples. A variable slope model was applied to fit a nonlinear regression curve to the data in GraphPad PRISM version 7.02 software. IC50 and Amax values were extrapolated from the resultant curves.

[2] = tested on: NCI-H929; experiment: as above; conditions: 5 days; for IC50: Homo sapiens, NCI-H929, 120 h; for Amax: in %
Experimental: as §1, §2

[3] = tested on: KMS-27; experiment: as above; conditions: 5 days; for IC50: KMS-27, 120 h; for Amax: in %
Experimental: as §1, §2

[4] = tested on: KMS-20; experiment: as above; conditions: 5 days; for IC50: KMS-20, 120 h; for Amax: in %
Experimental: as §1, §2

[5] = tested on: tf1; experiment: In vitro ADC activity, AML cell lines, CellTiter-Glo (Example 20); conditions: tf1, 5 days
[6] = tested on: nb4; experiment: as above; conditions: nb4, 5 days
[7] = tested on: eol1; experiment: as above; conditions: eol1, 5 days
[8] = tested on: 5339hx; experiment: as above; conditions: 5 days
[9] = tested on: 5979hx; experiment: as above; conditions: 5 days
[10] = tested on: ocim1; experiment: as above; conditions: ocim1, 5 days
[11] = tested on: p31fuj; experiment: as above; conditions: 5 days

## COc1ccccc1-c1nccc(COc2ccccc2C[C@@H](Oc2ncnc3sc(-c4ccc(F)cc4)c(-c4ccc(OCCN5CCN(C)CC5)c(Cl)c4C)c23)C(=O)O)n1 [P1, (2R)-2-[5-[3-chloro-2-methyl-4-[2-(4-methylpiperazin-1-yl)ethoxy]phenyl]-6-(4-fluorophenyl)thieno[2,3-d]pyrimidin-4-yl]oxy-3-[2-[[2-(2-methoxyphenyl)pyrimidin-4-yl]methoxy]phenyl]propanoic acid]
[1]; + 5 nM Venetoclax
  IC50: 5.57 nM
  Amax: 100.8
[1]; + 50 nM Venetoclax
  IC50: 5.23 nM
  Amax: 99.41
[1]; single agent
  IC50: 5.73 nM
  Amax: 94.25
[2]; NCI-H929, + 5 nM Venetoclax
  IC50: 8.69 nM
  Amax: 91.53
[2]; NCI-H929, + 50 nM Venetoclax
  IC50: 8.29 nM
  Amax: 103.4
[2]; NCI-H929, single agent
  IC50: 10.7 nM
  Amax: 90.09
[3]; KMS-27, + 5 nM Venetoclax
  IC50: 20.1 nM
  Amax: 110.5
[3]; KMS-27, + 50 nM Venetoclax
  IC50: 12 nM
  Amax: 114.7
[3]; KMS-27, single agent
  IC50: 153 nM
[4]; KMS-20, + 5 nM Venetoclax
  IC50: 30.6 nM
  Amax: 75.53
[4]; KMS-20, + 50 nM Venetoclax
  IC50: 36.2 nM
  Amax: 82.77
[4]; KMS-20, single agent
  IC50: 34.7 nM
  Amax: 65.65
[5]; Homo sapiens, TF-1, 120 h
  GI50: 239 nM
[5]; unit assumed
  Amax: 10%
[6]; Homo sapiens, NB-4, 120 h
  GI50: 3 nM
[6]; in % (unit assumed)
  Amax: −62
[7]; Homo sapiens, 120 h
  GI50: 1 nM
[7]; in % (unit assumed)
  Amax: −91
[8]; 120 h
  GI50: 5 nM
[8]; in % (unit assumed)
  Amax: −83
[9]; 120 h
  GI50: 1 nM
[9]
  Amax: −83
[10]; OCI-M1, 120 h
  GI50: > 10000 nM
[10]; unit assumed
  Amax: 86%
[11]; in % (unit assumed)
  Amax: −73
[11]; Homo sapiens, P31-FUJ, 120 h
  GI50: 116 nM
